Measured values taken from patent publication US11660349B2, “Non-linear multiblock copolymer-drug conjugates for the delivery of active agents” (priority 2012, dated 2023).
“Also recorded” adds a separate entry of the source.

Tests used:
[1] = system: mice with laser-induced choroidal NV; experiment: Laser-induced choroidal NV (CNV) mouse model; type: in vivo, mouse (C57BL/6); details: 14 days, vs vehicle-injected fellow eyes
Method: Pathogen-free C57BL/6 mice (Charles River, Wilmington, Mass.) were treated in accordance with the Association for Research in Vision and Ophthalmology Statement for the Use of Animals in Ophthalmic and Vision Research and the guidelines of the Johns Hopkins University Animal Care and Use Committee.
Choroidal NV was induced by laser photocoagulation-induced rupture of Bruch's membrane as previously described (Tobe, T. et al., Am. J. Pathol. 135(5): 1641-1646(1998)). […] Laser photocoagulation (75 μm spot size, 0.1 sec duration, 120 mW) was performed in the 9, 12, and 3 o'clock positions of the posterior pole of each eye with the slit lamp delivery system of an OcuLight GL diode laser (Iridex, Mountain View, Calif.) and a handheld cover slip as a contact lens to view the retina. Production of a bubble at the time of laser, which indicates rupture of Bruch's membrane, is an important factor in obtaining CNV; therefore, only burns in which a bubble was produced were included in the study.
Immediately after laser-induced rupture of Bruch's membrane, mice were randomized to various treatment groups for intraocular injections. Intravitreal injections were done under a dissecting microscope with a Harvard Pump Microinjection System and pulled glass micropipettes.
At 1, 4, 7, and 14 days after injection, fundus photographs were taken with a Micron III® camera (Phoenix Research Laboratories Inc., Pleasanton, Calif.). After 14 days, the mice were perfused with 1 ml of PBS containing 25 mg/ml of fluorescein-labeled dextran (2×10^6 Daltons average molecular weight; Sigma-Aldrich, St. Louis, Mo.) and choroidal flat mounts were examined by fluorescence microscopy. Images were captured with a Nikon Digital Still Camera DXM1200 (Nikon Instruments Inc., New York, N.Y.). Image analysis software (Image-Pro® Plus; Media Cybernetics, Silver Spring, Md.) was used to measure the total area of CNV at each rupture site with the investigator masked with respect to treatment group.

[2] = system: C57BL/6 mice with oxygen-induced ischemic retinopathy; experiment: Oxygen-induced ischemic retinopathy, area of retinal NV; type: in vivo, mouse (C57BL/6); details: five days after administration (P17), vs vehicle
Method: At P17, the area of retinal NV on the surface of the retina was measured. […] Retinas were dissected, washed, and incubated with goat-anti rat polyclonal antibody conjugated with Alexa 488 (Invitrogen, Carlsbad, Calif.) at 1:500 dilution at room temperature for 45 minutes and flat mounted. An observer masked with respect to treatment group measured the area of NV per retina by image analysis.

Adult C57BL/6 mice [3] = experiment: Electroretinograms (ERGs), retinal function after intraocular injection
Method: For scotopic recordings, mice were dark adapted overnight, and for photopic recordings, mice were adapted for 10 min to background white light at an intensity of 30 cd/m^2. The mice were anesthetized with an intraperitoneal injection of ketamine hydrochloride (100 mg/kg body weight) and xylazine (5 mg/kg body weight). Pupils were dilated with Midrin P containing of 0.5% tropicamide and 0.5% phenylephrine, hydrochloride (Santen Pharmaceutical Co., Osaka, Japan). The mice were placed on a pad heated to 39° C. and platinum loop electrodes were placed on each cornea after application of Gonioscopic prism solution (Alcon Labs, Fort Worth, Tex.). A reference electrode was placed subcutaneously in the anterior scalp between the eyes and a ground electrode was inserted into the tail. The head of the mouse was held in a standardized position in a ganzfeld bowl illuminator that ensured equal illumination of the eyes. Recordings for both eyes were made simultaneously with electrical impedance balanced. Scotopic ERGs were recorded at 11 intensity levels of white light ranging from −3.00 to 1.40 log cd-s/m2. Six measurements were averaged for each flash intensity. Photopic ERGs were recorded at three intensity levels of white light ranging from 0.60 to 1.40 log cd-s/m2 with a 30 cd/m2 background. Five measurements were averaged for each flash intensity.

Adult C57BL/6 mice [4] = experiment: Outer nuclear layer (ONL) thickness; type: in vivo, mouse (C57BL/6); details: 0.25 μg intraocular; one week after injection
Method: ONL thickness was measured. […] Mice were euthanized, a mark was placed at 12:00 at the corneal limbus, and eyes were removed and embedded in optimal cutting temperature compound. Ten micrometer frozen sections were cut parallel to the 12:00 or 9:00 meridian through the optic nerve and fixed in 4% paraformaldehyde. The sections were stained with hematoxylin and eosin, examined with an Axioskop microscope (Zeiss, Thornwood, N.Y.), and images were digitized using a three charge-coupled device (CCD) color video camera (IK-TU40A; Toshiba, Tokyo, Japan) and a frame grabber. Image-Pro Plus software (Media Cybernetics, Silver Spring, Md.) was used to outline the ONL.

[5] = system: HIF-1 transcriptional activity and ocular NV; details: intraocular injections of 0.01-0.25 μg; cited from earlier work
[6] = 0.1 μg intraocular after rupture of Bruch's membrane
[7] = 1.0 μg intraocular after rupture of Bruch's membrane
[8] = 10 μg intraocular after rupture of Bruch's membrane
[9] = 1 μg intraocular, fourteen days after injection

Row | SMILES | area of CNV [1, 6] | area of CNV [1, 7] | area of CNV [1, 8] | area of RNV ([2]; 0.01 μg intraocular at P12) | area of RNV ([2]; 0.1 μg intraocular at P12) | area of RNV ([2]; 1.0 μg intraocular at P12) | mean scotopic and photopic b-wave amplitudes (Adult C57BL/6 mice [3]; [9]) | outer nuclear layer thickness (Adult C57BL/6 mice [4]) | HIF-1 transcriptional activity and ocular NV [5] | mean scotopic and photopic b-wave amplitudes (Adult C57BL/6 mice [3]; 0.05 μg intraocular) | ERG amplitudes (scotopic a-wave, scotopic b-wave, photopic b-wave) (Adult C57BL/6 mice [3]; 0.25 μg intraocular, one week after injection)
1 | COc1cccc2c1C(=O)c1c(O)c3c(c(O)c1C2=O)C[C@@](O)(C(C)=O)C[C@@H]3O[C@H]1C[C@H](N)[C@H](O)[C@H](C)O1 [DNR, daunorubicin] | had no significant effect; also recorded: did not show a statistically significant reduction in the area of CNV | had no significant effect; also recorded: did not show a statistically significant reduction in the area of CNV | suppressed choroidal NV; also recorded: statistically significant reduction in the area of CNV | had no significant effect; also recorded: did not show a statistically significant reduction in the area of RNV | caused a small reduction; also recorded: statistically significant reduction in the area of RNV | markedly reduced the area of retinal NV; also recorded: statistically significant reduction in the area of RNV | significant reduction in mean scotopic and photopic b-wave amplitudes |  |  |  | 
2 | COc1cccc2c1C(=O)c1c(O)c3c(c(O)c1C2=O)C[C@@](O)(C(=O)CO)C[C@@H]3O[C@H]1C[C@H](N)[C@H](O)[C@H](C)O1 [DXR, doxorubicin] | did not have a significant effect; also recorded: did not show a statistically significant reduction in the area of CNV | did not have a significant effect; also recorded: did not show a statistically significant reduction in the area of CNV | suppressed choroidal NV; also recorded: statistically significant reduction in the area of CNV | but not 0.1 or 0.01 μg, significantly reduced the area of retinal NV; also recorded: did not show a statistically significant reduction in the area of RNV | but not 0.1 or 0.01 μg, significantly reduced the area of retinal NV; also recorded: did not show a statistically significant reduction in the area of RNV | significantly reduced the area of retinal NV; also recorded: statistically significant reduction in the area of RNV | significant reduction in mean scotopic and photopic b-wave amplitudes |  |  |  | 
3 | C[C@H]1O[C@@H](O[C@H]2[C@@H](O)C[C@H](O[C@H]3[C@@H](O)C[C@H](O[C@H]4CC[C@@]5(C)[C@H](CC[C@@H]6[C@@H]5C[C@@H](O)[C@]5(C)[C@@H](C7=CC(=O)OC7)CC[C@]65O)C4)O[C@@H]3C)O[C@@H]2C)C[C@H](O)[C@@H]1O [digoxin] |  |  |  |  |  |  |  | reduction in outer nuclear layer thickness at 3 of 6 measurement locations | suppress HIF-1 transcriptional activity and ocular NV | significant reduction in mean scotopic and photopic b-wave amplitudes | significant reduction in mean scotopic a-wave amplitude, mean scotopic b-wave amplitude, and mean photopic b-wave amplitude
